US6150385A, “1,3,4-thiadiazoles useful for the treatment of CMV infections” (Pharmacia & Upjohn Company, priority 1999, dated 2000)

Molecular target: T1, HCMV polymerase (Human cytomegalovirus, UniProt P08546)
T1 construct: made in house; host or cells: SF-9 insect cells infected with recombinant baculovirus
Experiment: HCMV polymerase assay (scintillation proximity assay)
Assay type: biochemical
Conditions: percentage of inhibition at 25 μM concentration in CMV polymerase assay
How it was run: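 Baculovirus/SF-9-expressed HCMV polymerase in 5.4 mM HEPES pH 7.5, 11.7 mM KCl, 4.5 mM MgCl2, 0.36 mg/ml BSA, 90 nM 3H-dTTP, with or without 2 mM CHAPS. Started with 6 nM biotinylated poly(dA)-oligo(dT), 30 min at 25 or 37 °C, EDTA-stopped, read by streptavidin-SPA counting; % inhibition at 25 μM.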

T1 sequence (P08546 whole entry): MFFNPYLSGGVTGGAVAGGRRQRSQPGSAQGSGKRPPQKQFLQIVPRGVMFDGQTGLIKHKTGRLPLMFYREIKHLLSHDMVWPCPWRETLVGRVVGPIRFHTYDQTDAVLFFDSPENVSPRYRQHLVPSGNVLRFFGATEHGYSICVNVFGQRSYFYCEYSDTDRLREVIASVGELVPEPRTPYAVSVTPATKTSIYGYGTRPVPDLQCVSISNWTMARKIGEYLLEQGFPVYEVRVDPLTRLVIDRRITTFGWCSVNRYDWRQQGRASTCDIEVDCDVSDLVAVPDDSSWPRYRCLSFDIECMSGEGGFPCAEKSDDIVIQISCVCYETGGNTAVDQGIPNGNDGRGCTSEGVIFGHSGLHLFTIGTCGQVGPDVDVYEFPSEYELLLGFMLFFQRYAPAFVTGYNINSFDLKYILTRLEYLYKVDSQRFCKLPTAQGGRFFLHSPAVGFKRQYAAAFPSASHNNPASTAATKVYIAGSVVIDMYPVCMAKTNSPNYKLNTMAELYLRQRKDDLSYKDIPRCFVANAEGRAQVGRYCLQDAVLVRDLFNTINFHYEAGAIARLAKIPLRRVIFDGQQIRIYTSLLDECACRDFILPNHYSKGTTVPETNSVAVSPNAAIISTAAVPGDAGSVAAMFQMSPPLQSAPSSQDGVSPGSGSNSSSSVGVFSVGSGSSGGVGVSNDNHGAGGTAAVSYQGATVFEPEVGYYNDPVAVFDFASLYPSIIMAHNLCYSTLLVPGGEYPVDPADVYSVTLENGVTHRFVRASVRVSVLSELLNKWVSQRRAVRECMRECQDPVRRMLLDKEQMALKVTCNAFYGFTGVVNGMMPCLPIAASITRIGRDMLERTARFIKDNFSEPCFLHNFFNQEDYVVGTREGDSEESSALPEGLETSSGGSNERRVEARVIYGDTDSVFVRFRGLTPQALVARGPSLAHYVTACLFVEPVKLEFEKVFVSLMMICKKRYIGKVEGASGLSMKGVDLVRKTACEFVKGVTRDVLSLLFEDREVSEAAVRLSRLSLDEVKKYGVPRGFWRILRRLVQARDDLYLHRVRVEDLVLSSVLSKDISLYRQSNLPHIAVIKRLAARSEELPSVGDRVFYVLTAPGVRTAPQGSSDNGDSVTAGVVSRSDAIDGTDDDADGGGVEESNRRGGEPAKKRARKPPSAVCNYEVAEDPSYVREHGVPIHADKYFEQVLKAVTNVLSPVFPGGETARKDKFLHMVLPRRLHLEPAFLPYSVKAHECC

| SMILES | inhibition at 25 µM [%] |
| --- | --- |
| CC(C)c1cc(C(C)C)c(C(=O)Nc2nnc(NCc3cccc4ccccc34)s2)c(C(C)C)c1 [compound 173, 2,4,6-triisopropyl-N-{5-[(1-naphthylmethyl)amino]-1,3,4-thiadiazol-2-yl}benzamide] | 49.5 |
| O=C(Nc1nnc(NCCc2cccs2)s1)c1ccc2c(c1)C(=O)OC2=O [compound 9, 1,3-dioxo-N-(5-{[2-(2-thienyl)ethyl]amino}-1,3,4-thiadiazol-2-yl)-1,3-dihydro-2-benzofuran-5-carboxamide] | 99.8 |
| CCCCCCCCCCCNc1nnc(NC(=O)CCCCCl)s1 [compound 106, 5-chloro-N-[5-(undecylamino)-1,3,4-thiadiazol-2-yl]pentanamide] | 64.2 |
| CCCCCCCC/C=C/CCCCCCCC(=O)Nc1nnc(NCCN2CCCC2)s1 [compound 19, (E)-N-(5-{[2-(1-pyrrolidinyl)ethyl]amino}-1,3,4-thiadiazol-2-yl)-9-octadecenamide] | 97.7 |
| CCCCCCCC/C=C/CCCCCCCC(=O)Nc1nnc(NCc2ccc(S(N)(=O)=O)cc2)s1 [compound 18, (E)-N-(5-{[4-(aminosulfonyl)benzyl]amino}-1,3,4-thiadiazol-2-yl)-9-octadecenamide] | 98.3 |
| CC(C)c1cc(C(C)C)c(C(=O)Nc2nnc(NCCC#N)s2)c(C(C)C)c1 [compound 435, N-{5-[(2-cyanoethyl)amino]-1,3,4-thiadiazol-2-yl}-2,4,6-triisopropylbenzamide] | 22.8 |
| CCCCCCCC/C=C/CCCCCCCC(=O)Nc1nnc(NCCN(C)C)s1 [compound 23, (E)-N-(5-{[2-(dimethylamino)ethyl]amino}-1,3,4-thiadiazol-2-yl)-9-octadecenamide] | 97 |
| CCOc1ccc2ccccc2c1C(=O)Nc1nnc(NCCc2c[nH]cn2)s1 [compound 89, 2-ethoxy-N-(5-{[2-(1H-imidazol-4-yl)ethyl]amino}-1,3,4-thiadiazol-2-yl)-1-naphthamide] | 66.3 |
| O=C(Nc1nnc(NCCc2c[nH]c3ccccc23)s1)c1cc2ccccc2s1 [compound 269, N-(5-{[2-(1H-indol-3-yl)ethyl]amino}-1,3,4-thiadiazol-2-yl)-1-benzothiophene-2-carboxamide] | 38.5 |
| N#Cc1ccc(C(=O)Nc2nnc(NCc3ccc(F)cc3)s2)cc1 [compound 74, 4-cyano-N-{5-[(4-fluorobenzyl)amino]-1,3,4-thiadiazol-2-yl}benzamide] | 69 |
| O=C(Nc1nnc(NCCCN2CCCC2=O)s1)c1ccc([N+](=O)[O-])o1 [compound 296, 5-nitro-N-(5-{[3-(2-oxo-1-pyrrolidinyl)propyl]amino}-1,3,4-thiadiazol-2-yl)-2-furamide] | 35.1 |
| CC(C)c1cc(C(C)C)c(C(=O)Nc2nnc(NCCNc3ccccc3)s2)c(C(C)C)c1 [compound 248, N-{5-[(2-anilinoethyl)amino]-1,3,4-thiadiazol-2-yl}-2,4,6-triisopropylbenzamide] | 40.8 |
| CCOc1ccc2ccccc2c1C(=O)Nc1nnc(NCc2cccc3ccccc23)s1 [compound 136, 2-ethoxy-N-{5-[(1-naphthylmethyl)amino]-1,3,4-thiadiazol-2-yl}-1-naphthamide] | 56.5 |
| CCOc1ccc2ccccc2c1C(=O)Nc1nnc(NCc2cccs2)s1 [compound 78, 2-ethoxy-N-{5-[(2-thienylmethyl)amino]-1,3,4-thiadiazol-2-yl}-1-naphthamide] | 68.2 |
| CC(C)c1cc(C(C)C)c(C(=O)Nc2nnc(NCc3cccs3)s2)c(C(C)C)c1 [compound 424, 2,4,6-triisopropyl-N-{5-[(2-thienylmethyl)amino]-1,3,4-thiadiazol-2-yl}benzamide] | 23.6 |
| N#Cc1ccc(C(=O)Nc2nnc(NCc3ccc4c(c3)OCO4)s2)cc1 [compound 471, N-{5-[(1,3-benzodioxol-5-ylmethyl)amino]-1,3,4-thiadiazol-2-yl}-4-cyanobenzamide] | 20 |
| O=C(Nc1nnc(NCc2ccc3c(c2)OCO3)s1)c1cc(F)cc(F)c1 [compound 372, N-{5-[(1,3-benzodioxol-5-ylmethyl)amino]-1,3,4-thiadiazol-2-yl}-3,5-difluorobenzamide] | 28.1 |
| NS(=O)(=O)c1ccc(CNc2nnc(NC(=O)c3ccc(C(F)(F)F)cc3)s2)cc1 [compound 398, N-(5-{[4-(aminosulfonyl)benzyl]amino}-1,3,4-thiadiazol-2-yl)-4-(trifluoromethyl)benzamide] | 25.9 |
| CC(C)c1cc(C(C)C)c(C(=O)Nc2nnc(NCC3CCCCC3)s2)c(C(C)C)c1 [compound 409, N-{5-[(cyclohexylmethyl)amino]-1,3,4-thiadiazol-2-yl}-2,4,6-triisopropylbenzamide] | 24.9 |
| O=C(Nc1nnc(NCc2cccs2)s1)c1ccc2c(c1)C(=O)OC2=O [compound 39, 1,3-dioxo-N-{5-[(2-thienylmethyl)amino]-1,3,4-thiadiazol-2-yl}-1,3-dihydro-2-benzofuran-5-carboxamide] | 87.1 |
| CCOc1ccc2ccccc2c1C(=O)Nc1nnc(NCC(c2ccccc2)c2ccccc2)s1 [compound 55, N-{5-[(2,2-diphenylethyl)amino]-1,3,4-thiadiazol-2-yl}-2-ethoxy-1-naphthamide] | 77.6 |
| CCCCCCCC/C=C/CCCCCCCC(=O)Nc1nnc(NCC2CC2)s1 [compound 113, (E)-N-{5-[(cyclopropylmethyl)amino]-1,3,4-thiadiazol-2-yl}-9-octadecenamide] | 62.2 |

More lines, now with the values ahead:

| inhibition at 25 µM [%] | SMILES |
| --- | --- |
| 34.2 | CC1(C)C2CC[C@@H](CNc3nnc(NC(=O)c4ccc(C#N)cc4)s3)C1C2 (stereo partly drawn) [compound 307, 4-cyano-N-[5-({[(2R)-6,6-dimethylbicyclo[3.1.1]hept-2-yl]methyl}amino)-1,3,4-thiadiazol-2-yl]benzamide] |
| 39.6 | NS(=O)(=O)c1ccc(CCNc2nnc(NC(=O)c3c(Cl)cccc3Cl)s2)cc1 [compound 259, N-(5-{[4-(aminosulfonyl)phenethyl]amino}-1,3,4-thiadiazol-2-yl)-2,6-dichlorobenzamide] |
| 45 | O=C(Nc1nnc(NCCCn2ccnc2)s1)c1ccc(Cl)c(Cl)c1 [compound 202, 3,4-dichloro-N-(5-{[3-(1H-imidazol-1-yl)propyl]amino}-1,3,4-thiadiazol-2-yl)benzamide] |
| 44.6 | O=C(/C=C/c1ccccc1Cl)Nc1nnc(NCCc2ccccc2)s1 [compound 210, (E)-3-(2-chlorophenyl)-N-[5-(phenethylamino)-1,3,4-thiadiazol-2-yl]-2-propenamide] |
| 67.6 | O=C(Nc1nnc(NCc2ccncc2)s1)c1c(Cl)cccc1Cl [compound 84, 2,6-dichloro-N-{5-[(4-pyridinylmethyl)amino]-1,3,4-thiadiazol-2-yl}benzamide] |
| 43.9 | CCCCCCCCCCCNc1nnc(NC(=O)/C=C/c2ccccc2Cl)s1 [compound 216, (E)-3-(2-chlorophenyl)-N-[5-(undecylamino)-1,3,4-thiadiazol-2-yl]-2-propenamide] |
| 20.7 | Cc1ccc(C(=O)Nc2nnc(NCc3cccc4ccccc34)s2)cc1 [compound 457, 4-methyl-N-{5-[(1-naphthylmethyl)amino]-1,3,4-thiadiazol-2-yl}benzamide] |
| 48.1 | O=C(CCCCCl)Nc1nnc(NCCC(c2ccccc2)c2ccccc2)s1 [compound 183, 5-chloro-N-{5-[(3,3-diphenylpropyl)amino]-1,3,4-thiadiazol-2-yl}pentanamide] |
| 43.5 | O=C(/C=C/c1ccccc1Cl)Nc1nnc(NCCCn2ccnc2)s1 [compound 221, (E)-3-(2-chlorophenyl)-N-(5-{[3-(1H-imidazol-1-yl)propyl]amino}-1,3,4-thiadiazol-2-yl)-2-propenamide] |
| 30.2 | O=C(/C=C/c1ccccc1Cl)Nc1nnc(NC2CC2)s1 [compound 353, (E)-3-(2-chlorophenyl)-N-[5-(cyclopropylamino)-1,3,4-thiadiazol-2-yl]-2-propenamide] |
| 35.6 | CCSCCNc1nnc(NC(=O)c2c(Cl)cccc2Cl)s1 [compound 292, 2,6-dichloro-N-(5-{[2-(ethylsulfanyl)ethyl]amino}-1,3,4-thiadiazol-2-yl)benzamide] |
| 92.9 | CCOc1ccc2ccccc2c1C(=O)Nc1nnc(NCCCNC2CCCCC2)s1 [compound 27, N-(5-{[3-(cyclohexylamino)propyl]amino}-1,3,4-thiadiazol-2-yl)-2-ethoxy-1-naphthamide] |
| 23 | O=C(/C=C/c1ccccc1)Nc1nnc(NCCN2CCCC2)s1 [compound 432, (E)-3-phenyl-N-(5-{[2-(1-pyrrolidinyl)ethyl]amino}-1,3,4-thiadiazol-2-yl)-2-propenamide] |
| 29 | O=C(/C=C/c1ccccc1)Nc1nnc(NCC2CCCCC2)s1 [compound 360, (E)-N-{5-[(cyclohexylmethyl)amino]-1,3,4-thiadiazol-2-yl}-3-phenyl-2-propenamide] |
| 28.8 | O=C(Nc1nnc(NCc2ccc(F)cc2)s1)c1cc2ccccc2s1 [compound 361, N-{5-[(4-fluorobenzyl)amino]-1,3,4-thiadiazol-2-yl}-1-benzothiophene-2-carboxamide] |
| 58.9 | NS(=O)(=O)c1ccc(CCNc2nnc(NC(=O)/C=C/c3ccccc3Cl)s2)cc1 [compound 125, (E)-N-(5-{[4-(aminosulfonyl)phenethyl]amino}-1,3,4-thiadizol-2-yl)-3-(2-chlorophenyl)-2-propenamide] |
| 86.3 | O=C(Nc1nnc(NC2CCc3ccccc32)s1)c1ccc2c(c1)C(=O)OC2=O (stereo not drawn) [compound 40, N-[5-(2,3-dihydro-1H-inden-1-ylamino)-1,3,4-thiadiazol-2-yl]-1,3-dioxo-1,3-dihydro-2-benzofuran-5-carboxamide] |
